Laboratory results as given in patent US20140024663A1, “ATB(0,+) AMINO ACID TRANSPORTER AS A DRUG TARGET FOR TREATMENT OF ESTROGEN RECEPTOR-POSITIVE BREAST CANCER” (GEORGIA HEALTH SCIENCES UNIVERSITY RESEARCH INSTITUTE, INC., priority 2012, published 2014).

Tested on: ZR75.1 cells
Assay: QCM cell invasion assay
Format: cell-based, human
Conditions: ZR75.1, α-MT 2.5 mM, p>0.05
Procedure: Migration and invasion assays. The influence of α-MT on cell migration and invasion was determined with ZR75.1 cells. The migration of these cells toward fetal bovine serum was measured using the QCM™ cell migration assay kit (Millipore) according to manufacturer's instructions. Serum-starved ZR75.1 cells were allowed to migrate for 48 h in the presence/absence of α-MT (2.5 mM). After removing the cells on the top of the membrane filter, the inserts were stained with 0.1% crystal violet, washed and dried. The crystal violet dye retained on the filters, representing the cells that migrated to the underside of the membrane filter, was extracted with acetic acid. The absorbance of the extract was measured at 570 nm. Cell invasion assay was performed similarly using the QCM™ cell invasion assay kit (Millipore). The inserts used in this assay were coated with ECMATRIX™, representing extracellular matrix.

In the case of `CC(N)(Cc1c[nH]c2ccccc12)C(=O)O` (racemic) [α-MT, α-methyl-DL-tryptophan], the “invasion in α-MT-treated cells” value is reported as 95±14 % of control.
